Experimental data from paper PMC7830863, “Characterization of Cross-Linked Enzyme Aggregates of the Y509E Mutant of a Glycoside Hydrolase Family 52 β-xylosidase from G. stearothermophilus” (Molecules, 2021).

Target: T1, XynB2 (Geobacillus stearothermophilus, UniProt Q09LZ0, Y509E)
T1 construct: recombinant in E. coli C43 from plasmid pJAVI100 (template pJAVI91); semi-purified by heat treatment (45 °C, 30 min) and dialysis; all rows Y509E
Test: p-nitrophenol release at […] nm, hyperbolic fit
Format: biochemical
Conditions: free semi-purified (heat-treated extract) enzyme; 100 mM citrate phosphate-glycine buffer, pH 6.5, 50 °C

T1 sequence (Q09LZ0 entry or part of it Y509E): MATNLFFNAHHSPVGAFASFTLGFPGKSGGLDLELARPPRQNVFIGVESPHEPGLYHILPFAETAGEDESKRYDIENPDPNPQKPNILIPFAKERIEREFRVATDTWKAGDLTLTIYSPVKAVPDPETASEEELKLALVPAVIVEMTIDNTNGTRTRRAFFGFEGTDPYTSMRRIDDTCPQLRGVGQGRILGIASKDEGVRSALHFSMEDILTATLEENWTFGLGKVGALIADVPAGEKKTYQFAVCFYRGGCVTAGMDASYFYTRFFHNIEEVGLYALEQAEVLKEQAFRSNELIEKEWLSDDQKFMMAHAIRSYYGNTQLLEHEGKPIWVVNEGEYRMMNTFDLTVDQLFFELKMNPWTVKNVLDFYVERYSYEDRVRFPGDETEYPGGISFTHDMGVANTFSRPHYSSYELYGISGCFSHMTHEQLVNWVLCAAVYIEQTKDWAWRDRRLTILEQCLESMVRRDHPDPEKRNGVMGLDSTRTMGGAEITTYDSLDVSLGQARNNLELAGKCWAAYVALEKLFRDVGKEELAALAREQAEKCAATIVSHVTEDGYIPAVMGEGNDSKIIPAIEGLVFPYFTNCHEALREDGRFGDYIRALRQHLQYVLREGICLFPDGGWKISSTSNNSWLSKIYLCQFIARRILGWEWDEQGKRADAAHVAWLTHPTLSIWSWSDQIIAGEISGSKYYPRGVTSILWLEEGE

Q: `O=[N+]([O-])c1ccc(O[C@@H]2OC[C@@H](O)[C@H](O)[C@H]2O)cc1` [p-nitrophenyl-β-d-xylopyranoside] was tested. Which Km did it give?
A: 900 ± 100 µM
